Measurements taken from ChEMBL document CHEMBL4007494, “Structural Basis of Small-Molecule Aggregate Induced Inhibition of a Protein-Protein Interaction” (J Med Chem, 2017).
The source made the active and inactive calls. The rule behind the calls is not given here.

Columns and labels:
[1] = Critical aggregation concentration assessed as formation of aggregate after 30 mins by light scattering method
[2] = Critical aggregation concentration assessed as formation of aggregate after 30 mins in presence of triton X-100 by light scattering method
Tumor necrosis factor [3] = biological target: T1, Tumor necrosis factor (Homo sapiens, UniProt P01375); assay: Binding affinity to human TNF-alpha soluble domain assessed as decrease in complex formation with human TNFR1 extracellular domain preincubated for 1 hr followed by receptor addition measure after 2 hrs by TR-FRET assay
Tumor necrosis factor [4] = biological target: T1, Tumor necrosis factor; assay: Binding affinity to human TNF-alpha soluble domain assessed as decrease in complex formation with human TNFR2 extracellular domain preincubated for 1 hr followed by receptor addition measure after 2 hrs by TR-FRET assay
Tumor necrosis factor [5] = biological target: T1, Tumor necrosis factor; conditions: 50 uM
Description: Binding affinity to human TNF-alpha soluble domain assessed as sedimentation velocity constant s20,w at 50 uM after 3 hrs by ultracentrifugation method

T1 sequence (P01375 whole entry, the tested form may be a part): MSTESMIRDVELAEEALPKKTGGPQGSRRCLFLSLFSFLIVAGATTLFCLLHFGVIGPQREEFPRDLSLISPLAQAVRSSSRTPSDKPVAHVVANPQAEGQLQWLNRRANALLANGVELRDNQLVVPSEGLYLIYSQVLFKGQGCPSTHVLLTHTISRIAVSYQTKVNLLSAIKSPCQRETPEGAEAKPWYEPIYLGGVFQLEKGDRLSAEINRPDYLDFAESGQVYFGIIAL

Row | Structure (SMILES) | CAC [1] | CAC [2] | IC50 (Tumor necrosis factor [3]) [nM] | IC50 (Tumor necrosis factor [4]) [nM] | S20,w (Tumor necrosis factor [5])
1 | Cc1cc2occ(CN(C)CCN(C)Cc3cn(-c4cccc(C(F)(F)F)c4)c4ccccc34)c(=O)c2cc1C | 10 µM | – | – | – | –
2 | Clc1ccc(COC(Cn2ccnc2)c2ccc(Cl)cc2Cl)c(Cl)c1 (stereo not drawn) | Dose-dependent effect | inactive | – | – | –
3 | Nc1nccc(N(Cc2ccccc2)c2ccccc2-c2cccc(-c3cnc(N4CCNCC4)nc3)c2)n1 | 1 µM | inactive | 1200 | 1100 | 3.09
